Laboratory results reported in US20060069132A1, “Azolecarboxamide herbicides” (priority 2004, published 2006).

Key:
[1] = system: blackgrass; experiment: Test B postemergence herbicide test; format: in vivo, Alopecurus myosuroides; details: postemergence, visual rating, scale 0 (no effect) to 100 (complete control)
Summary of the method: (§1)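 Each value is a visual 0–100 response rating taken against controls 13 to 15 days after treatment in the greenhouse. Plants received formulated chemical postemergence at the 1- to 4-leaf stage or, in flooded paddy, at the 2-leaf stage.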

[2] = system: barnyardgrass; experiment: Test B flooded paddy test; format: in vivo, Echinochloa crus-galli; details: 1000 g ai/ha, visual rating, scale 0 to 100 (0 no effect, 100 complete control), 13 to 15 days
Summary of the method: as §1

[3] = system: small flower umbrella sedge; experiment: Test B flooded paddy test; format: in vivo, Cyperus difformis; details: 1000 g ai/ha, visual rating, scale 0 to 100 (0 no effect, 100 complete control), 13 to 15 days
Summary of the method: as §1

[4] = system: barnyardgrass; experiment: Test B pre-/postemergence herbicide test; format: in vivo, Echinochloa crus-galli; details: for Barnyardgrass plant response rating (0 to 100 scale) / Plant response rating, Barnyardgrass: preemergence; for Barnyardgrass plant response rating: postemergence, scale 0 (no effect) to 100 (complete control)
Summary of the method: (§2)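 Evaluation is visual, comparing treated with control plants on a scale where 0 means no effect and 100 means full control. Treatments were preemergence, or postemergence on seedlings 2–18 cm tall, and held 13–15 days in the greenhouse.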

[5] = system: lambsquarters; experiment: Test B pre-/postemergence herbicide test; format: in vivo, Chenopodium album; details: for Lambsquarters plant response rating (0 to 100 scale) / Plant response rating, Lambsquarters: preemergence; for Lambsquarters plant response rating: postemergence, scale 0 (no effect) to 100 (complete control)
Summary of the method: (§3)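 Test chemicals in a non-phytotoxic solvent mixture with surfactant were applied preemergence to seeded species and postemergence to plants 2-18 cm tall (1- to 4-leaf stage); rice and barnyardgrass were also tested in a flooded paddy at the 2-leaf stage. Visual rating versus controls after 13-15 days in greenhouse, scale 0 (no effect) to 100 (complete control).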

[6] = system: giant foxtail; experiment: Test B pre-/postemergence herbicide test; format: in vivo, Setaria faberi; details: for Foxtail, Giant plant response rating (0 to 100 scale) / Plant response rating, Foxtail, Giant: preemergence; for Foxtail, Giant plant response rating: postemergence, scale 0 (no effect) to 100 (complete control)
Summary of the method: as §3

[7] = system: morningglory; experiment: Test B pre-/postemergence herbicide test; format: in vivo, Ipomoea coccinea; details: for Morningglory plant response rating (0 to 100 scale) / Plant response rating, Morningglory: preemergence; for Morningglory plant response rating: postemergence, scale 0 (no effect) to 100 (complete control)
Summary of the method: as §2

[8] = system: wild oat; experiment: Test B postemergence herbicide test; format: in vivo, Avena fatua; details: postemergence, visual rating, scale 0 (no effect) to 100 (complete control)
Summary of the method: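 Read-out: visual comparison with controls, scored 0 to 100, where 100 means complete control and 0 no effect. Formulated chemicals were applied postemergence to plants 2–18 cm tall (1- to 4-leaf), or to flooded-paddy plants at the 2-leaf stage, then held 13 to 15 days under glass.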

[9] = system: rice; experiment: Test B flooded paddy test; format: in vivo, Oryza sativa; details: 1000 g ai/ha, visual rating, scale 0 to 100 (0 no effect, 100 complete control), 13 to 15 days
Summary of the method: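 Paddy species grown to the 2-leaf stage under flooding; blackgrass sprayed postemergence at 2–18 cm (1- to 4-leaf stage). Plants kept in a greenhouse for 13 to 15 days, then visually rated against controls on 0 (no effect) to 100 (complete control).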

[10] = system: cocklebur; experiment: Test B pre-/postemergence herbicide test; format: in vivo, Xanthium strumarium; details: for Cocklebur plant response rating (0 to 100 scale) / Plant response rating, Cocklebur: preemergence; for Cocklebur plant response rating: postemergence, scale 0 (no effect) to 100 (complete control)
Summary of the method: as §2

[11] = system: pigweed; experiment: Test B pre-/postemergence herbicide test; format: in vivo, Amaranthus retroflexus; details: for Pigweed plant response rating (0 to 100 scale) / Plant response rating, Pigweed: preemergence; for Pigweed plant response rating: postemergence, scale 0 (no effect) to 100 (complete control)
Summary of the method: as §3

[12] = system: ducksalad; experiment: Test B flooded paddy test; format: in vivo, Heteranthera limosa; details: 1000 g ai/ha, visual rating, scale 0 to 100 (0 no effect, 100 complete control), 13 to 15 days
Summary of the method: as §1

[13] = system: corn; experiment: Test B pre-/postemergence herbicide test; format: in vivo, Zea mays; details: for Corn plant response rating (0 to 100 scale) / Plant response rating, Corn: preemergence; for Corn plant response rating: postemergence, scale 0 (no effect) to 100 (complete control)
Summary of the method: as §3

[14] = system: large crabgrass; experiment: Test B pre-/postemergence herbicide test; format: in vivo, Digitaria sanguinalis; details: for Crabgrass, Large plant response rating (0 to 100 scale) / Plant response rating, Crabgrass, Large: preemergence; for Crabgrass, Large plant response rating: postemergence, scale 0 (no effect) to 100 (complete control)
Summary of the method: as §3

[15] = system: velvetleaf; experiment: Test B pre-/postemergence herbicide test; format: in vivo, Abutilon theophrasti; details: for Velvetleaf plant response rating (0 to 100 scale) / Plant response rating, Velvetleaf: preemergence; for Velvetleaf plant response rating: postemergence, scale 0 (no effect) to 100 (complete control)
Summary of the method: as §3

[16] = 125 g ai/ha, 0 = no effect, 100 = complete control
[17] = 500 g ai/ha, visual rating 0-100, 0 no effect, 100 complete control
[18] = 500 g ai/ha, visual rating, 0 = no effect, 100 = complete control

C=CCNC(=O)c1cccc(NC(=O)c2sc(C(C)(C)C)nc2C)c1 [Compound 202]
0: Blackgrass plant response rating ([1]; 125 g ai/ha) | Blackgrass plant response rating ([1]; 500 g ai/ha) | Barnyardgrass plant response rating ([4]; 125 g ai/ha, visual rating) | Barnyardgrass plant response rating ([4]; 500 g ai/ha, visual rating) | Morningglory plant response rating (0 to 100 scale) [7, 16] | Cocklebur plant response rating (0 to 100 scale) [10, 16] | Corn plant response rating (0 to 100 scale) [13, 16] | Crabgrass, Large plant response rating ([14]; 125 g ai/ha, visual rating)
10: Foxtail, Giant plant response rating (0 to 100 scale) [6, 16] | Foxtail, Giant plant response rating ([6]; 125 g ai/ha, visual rating) | Foxtail, Giant plant response rating ([6]; 500 g ai/ha, visual rating) | Oat, Wild plant response rating ([8]; 125 g ai/ha) | Oat, Wild plant response rating ([8]; 500 g ai/ha) | Plant response rating, Cocklebur [10, 17] | Pigweed plant response rating (0 to 100 scale) [11, 16] | Corn plant response rating ([13]; 125 g ai/ha, visual rating) | Corn plant response rating ([13]; 500 g ai/ha, visual rating) | Crabgrass, Large plant response rating ([14]; 500 g ai/ha, visual rating) | Velvetleaf plant response rating (0 to 100 scale) [15, 16] | Velvetleaf plant response rating ([15]; 125 g ai/ha, visual rating)
90: Plant response rating, Barnyardgrass [4, 17] | Plant response rating, Foxtail, Giant [6, 17] | Plant response rating, Pigweed [11, 17]
20: Barnyardgrass plant response rating (0 to 100 scale) [4, 16] | Morningglory plant response rating ([7]; 125 g ai/ha, visual rating) | Plant response rating, Corn [13, 17] | Plant response rating, Velvetleaf [15, 17]
100: Plant response rating, Lambsquarters [5, 17] | Plant response rating, Crabgrass, Large [14, 17]
50: Sedge, Umbrella plant response rating [3] | Lambsquarters plant response rating ([5]; 125 g ai/ha, visual rating) | Lambsquarters plant response rating ([5]; 500 g ai/ha, visual rating)
60: Ducksalad plant response rating [12] | Crabgrass, Large plant response rating (0 to 100 scale) [14, 16]
40: Barnyardgrass plant response rating [2] | Morningglory plant response rating ([7]; 500 g ai/ha, visual rating) | Cocklebur plant response rating ([10]; 500 g ai/ha, visual rating) | Pigweed plant response rating ([11]; 500 g ai/ha, visual rating)
30: Lambsquarters plant response rating (0 to 100 scale) [5, 16] | Plant response rating, Morningglory [7, 17] | Rice plant response rating [9] | Cocklebur plant response rating ([10]; 125 g ai/ha, visual rating) | Pigweed plant response rating ([11]; 125 g ai/ha, visual rating) | Velvetleaf plant response rating ([15]; 500 g ai/ha, visual rating)

CCc1nc(C(C)(C)C)sc1C(=O)Nc1cccc(C(=O)NCC2CC2)n1 [Compound 215]
10: Barnyardgrass plant response rating (0 to 100 scale) [4, 16] | Morningglory plant response rating (0 to 100 scale) [7, 16] | Oat, Wild plant response rating ([8]; 125 g ai/ha) | Corn plant response rating ([13]; 500 g ai/ha, visual rating)
70: Pigweed plant response rating ([11]; 500 g ai/ha, visual rating)
40: Morningglory plant response rating ([7]; 500 g ai/ha, visual rating) | Velvetleaf plant response rating ([15]; 125 g ai/ha, visual rating)
90: Sedge, Umbrella plant response rating [3] | Lambsquarters plant response rating (0 to 100 scale) [5, 16] | Ducksalad plant response rating [12]
100: Plant response rating, Lambsquarters [5, 18] | Plant response rating, Pigweed [11, 18]
0: Blackgrass plant response rating ([1]; 125 g ai/ha) | Blackgrass plant response rating ([1]; 500 g ai/ha) | Barnyardgrass plant response rating ([4]; 125 g ai/ha, visual rating) | Lambsquarters plant response rating ([5]; 125 g ai/ha, visual rating) | Lambsquarters plant response rating ([5]; 500 g ai/ha, visual rating) | Foxtail, Giant plant response rating (0 to 100 scale) [6, 16] | Foxtail, Giant plant response rating ([6]; 125 g ai/ha, visual rating) | Morningglory plant response rating ([7]; 125 g ai/ha, visual rating) | Cocklebur plant response rating (0 to 100 scale) [10, 16] | Plant response rating, Cocklebur [10, 18] | Corn plant response rating (0 to 100 scale) [13, 16] | Plant response rating, Corn [13, 18] | Corn plant response rating ([13]; 125 g ai/ha, visual rating) | Crabgrass, Large plant response rating (0 to 100 scale) [14, 16] | Crabgrass, Large plant response rating ([14]; 125 g ai/ha, visual rating) | Crabgrass, Large plant response rating ([14]; 500 g ai/ha, visual rating) | Velvetleaf plant response rating (0 to 100 scale) [15, 16]
30: Barnyardgrass plant response rating [2] | Rice plant response rating [9]
80: Plant response rating, Foxtail, Giant [6, 18] | Cocklebur plant response rating ([10]; 500 g ai/ha, visual rating) | Pigweed plant response rating (0 to 100 scale) [11, 16] | Plant response rating, Crabgrass, Large [14, 18]
60: Plant response rating, Barnyardgrass [4, 18] | Plant response rating, Velvetleaf [15, 18] | Velvetleaf plant response rating ([15]; 500 g ai/ha, visual rating)
20: Barnyardgrass plant response rating ([4]; 500 g ai/ha, visual rating) | Foxtail, Giant plant response rating ([6]; 500 g ai/ha, visual rating) | Plant response rating, Morningglory [7, 18] | Oat, Wild plant response rating ([8]; 500 g ai/ha) | Cocklebur plant response rating ([10]; 125 g ai/ha, visual rating) | Pigweed plant response rating ([11]; 125 g ai/ha, visual rating)
